Values joined by “and” are separate entries in the source; they are usually repeats but may differ in a detail not shown here. Equal entries are not always repeated.
Species: Rattus norvegicus
Assay: DrugMatrix - Regimen: Daily Repeat
Assay type: toxicity, organism-based, Sprague-Dawley
Parameters: regimen Daily Repeat, gender Male, age 6-8 weeks
Details: in vivo, po, route oral GAVAGE, vehicle .5 % CMC; for ABSOLUTE BASOPHIL / ABSOLUTE EOSINOPHIL / ABSOLUTE LYMPHOCYTE / ABSOLUTE MONOCYTE / BASOPHIL / EOSINOPHIL / ERYTHROCYTE COUNT / HEMATOCRIT / HEMOGLOBIN / LEUKOCYTE COUNT / LYMPHOCYTE / MEAN CORPUSCULAR HEMOGLOBIN / MEAN CORPUSCULAR HEMOGLOBIN CONCENTRATION / MEAN CORPUSCULAR VOLUME / MONOCYTE / NEUTROPHIL / PLATELET COUNT / ABSOLUTE SEGMENTED NEUTROPHIL / NUCLEATED RED BLOOD CELLS: tissue Blood; for ALANINE AMINOTRANSFERASE / ALBUMIN / ALKALINE PHOSPHATASE / ASPARTATE AMINOTRANSFERASE / BLOOD UREA NITROGEN / CARBON DIOXIDE / CHLORIDE / CHOLESTEROL / CREATINE PHOSPHOKINASE / CREATININE / GLUCOSE / LACTATE DEHYDROGENASE / LIPASE / PHOSPHORUS / POTASSIUM / SODIUM / TOTAL BILIRUBIN / TOTAL PROTEIN / URIC ACID: tissue Plasma
[1] = 0 mg/kg, 120 h, dose level Control, time 5 day
[2] = 0 mg/kg, […], dose level Control, time 14 day
[3] = 10 mg/kg, 72 h, dose level Low, time 3 day
[4] = 10 mg/kg, 120 h, dose level Low, time 5 day

CN(C)CCN(Cc1cccs1)c1ccccn1
ABSOLUTE BASOPHIL [1]: 150 cells/µL
ABSOLUTE EOSINOPHIL [1]: 110 cells/µL
ABSOLUTE LYMPHOCYTE [1]: 13400 cells/µL
ABSOLUTE MONOCYTE [1]: 330 cells/µL
BASOPHIL [1]: 0.78%
EOSINOPHIL [1]: 0.62%
ERYTHROCYTE COUNT [1]: 7.12 x10E6/uL
HEMATOCRIT [1]: 46.95%
HEMOGLOBIN [1]: 14.55 G/DL
LEUKOCYTE COUNT [1]: 16.58 x10E3/uL
LYMPHOCYTE [1]: 80.95%
MEAN CORPUSCULAR HEMOGLOBIN [1]: 20.45 pg
MEAN CORPUSCULAR HEMOGLOBIN CONCENTRATION [1]: 31.02 G/DL
MEAN CORPUSCULAR VOLUME [1]: 65.97 fL
MONOCYTE [1]: 1.97%
NEUTROPHIL [1]: 14.12%
PLATELET COUNT [1]: 1229.25 x10E3/uL
ALANINE AMINOTRANSFERASE [1]: 45 u/L
ALBUMIN [1]: 3.8 G/DL
ALKALINE PHOSPHATASE [1]: 388 u/L
ASPARTATE AMINOTRANSFERASE [1]: 72.25 u/L
BLOOD UREA NITROGEN [1]: 15.75 mg/dL
CARBON DIOXIDE [1]: 37 mmol/L
CHLORIDE [1]: 107 MEQ/L
CHOLESTEROL [1]: 73 mg/dL
CREATINE PHOSPHOKINASE [1]: 525.5 u/L
CREATININE [1]: 0.5 mg/dL
GLUCOSE [1]: 179.5 mg/dL
LACTATE DEHYDROGENASE [1]: 216.25 u/L
LIPASE [1]: 22.5 u/L
PHOSPHORUS [1]: 11.97 mg/dL
POTASSIUM [1]: 6.4 MEQ/L
SODIUM [1]: 151.25 MEQ/L
TOTAL BILIRUBIN [1]: 0.3 mg/dL
TOTAL PROTEIN [1]: 6.55 G/DL
URIC ACID [1]: 1.35 mg/dL
ABSOLUTE BASOPHIL [2]: 120 cells/µL
ABSOLUTE EOSINOPHIL [2]: 40 cells/µL
ABSOLUTE LYMPHOCYTE [2]: 10100 cells/µL
ABSOLUTE MONOCYTE [2]: 190 cells/µL
BASOPHIL [2]: 1.1%
EOSINOPHIL [2]: 0.33%
ERYTHROCYTE COUNT [2]: 7.86 x10E6/uL
HEMATOCRIT [2]: 48.5%
HEMOGLOBIN [2]: 15.4 G/DL
LEUKOCYTE COUNT [2]: 11.73 x10E3/uL
LYMPHOCYTE [2]: 85.92%
MEAN CORPUSCULAR HEMOGLOBIN [2]: 19.55 pg
MEAN CORPUSCULAR HEMOGLOBIN CONCENTRATION [2]: 31.72 G/DL
MEAN CORPUSCULAR VOLUME [2]: 61.67 fL
MONOCYTE [2]: 1.6%
NEUTROPHIL [2]: 10.2%
PLATELET COUNT [2]: 1212.75 x10E3/uL
ALANINE AMINOTRANSFERASE [2]: 47 u/L
ALBUMIN [2]: 3.85 G/DL
ALKALINE PHOSPHATASE [2]: 356.5 u/L
ASPARTATE AMINOTRANSFERASE [2]: 87.75 u/L
BLOOD UREA NITROGEN [2]: 14.25 mg/dL
CARBON DIOXIDE [2]: 36.5 mmol/L
CHLORIDE [2]: 106.5 MEQ/L
CHOLESTEROL [2]: 63.25 mg/dL
CREATINE PHOSPHOKINASE [2]: 324.5 u/L
CREATININE [2]: 0.65 mg/dL
GLUCOSE [2]: 162.75 mg/dL
LACTATE DEHYDROGENASE [2]: 299 u/L
LIPASE [2]: 16.75 u/L
PHOSPHORUS [2]: 10.45 mg/dL
POTASSIUM [2]: 6.6 MEQ/L
SODIUM [2]: 152 MEQ/L
TOTAL BILIRUBIN [2]: 0.25 mg/dL
TOTAL PROTEIN [2]: 6.7 G/DL
URIC ACID [2]: 1.15 mg/dL
ABSOLUTE BASOPHIL [3]: 0 CELLS/uL
ABSOLUTE EOSINOPHIL [3]: 27 CELLS/uL
ABSOLUTE LYMPHOCYTE [3]: 9772.67 CELLS/uL
ABSOLUTE MONOCYTE [3]: 248.67 CELLS/uL
ABSOLUTE SEGMENTED NEUTROPHIL [3]: 751.67 CELLS/uL
BASOPHIL [3]: 0%
EOSINOPHIL [3]: 0.33%
ERYTHROCYTE COUNT [3]: 4.84 x10E6/uL
HEMATOCRIT [3]: 31.57%
HEMOGLOBIN [3]: 12.13 G/DL
LEUKOCYTE COUNT [3]: 10.8 x10E3/uL
LYMPHOCYTE [3]: 90.33%
MEAN CORPUSCULAR HEMOGLOBIN [3]: 25.1 pg
MEAN CORPUSCULAR HEMOGLOBIN CONCENTRATION [3]: 38.43 G/DL
MEAN CORPUSCULAR VOLUME [3]: 65.27 fL
MONOCYTE [3]: 2.33%
NEUTROPHIL [3]: 7%
NUCLEATED RED BLOOD CELLS [3]: 0 /100WBC
PLATELET COUNT [3]: 1127 x10E3/uL
ALANINE AMINOTRANSFERASE [3]: 57.33 u/L
ALBUMIN [3]: 3.9 G/DL
ALKALINE PHOSPHATASE [3]: 413.67 u/L
ASPARTATE AMINOTRANSFERASE [3]: 90.67 u/L
BLOOD UREA NITROGEN [3]: 16 mg/dL
CARBON DIOXIDE [3]: 30.33 mmol/L
CHLORIDE [3]: 98.33 MEQ/L
CHOLESTEROL [3]: 86 mg/dL
CREATINE PHOSPHOKINASE [3]: 368 u/L
CREATININE [3]: 0.25 mg/dL
GLUCOSE [3]: 147.33 mg/dL
LACTATE DEHYDROGENASE [3]: 103 u/L
LIPASE [3]: 10.67 u/L
PHOSPHORUS [3]: 10.53 mg/dL
POTASSIUM [3]: 5.88 MEQ/L
SODIUM [3]: 141.1 MEQ/L
TOTAL BILIRUBIN [3]: 0.23 mg/dL
TOTAL PROTEIN [3]: 6.23 G/DL
URIC ACID [3]: 0.43 mg/dL
ABSOLUTE SEGMENTED NEUTROPHIL [4]: 1373 CELLS/uL
BASOPHIL [4]: 0.85% and 0%
EOSINOPHIL [4]: 0.43% and 0.33%
ERYTHROCYTE COUNT [4]: 6.77 x10E6/uL and 5.32 x10E6/uL
HEMATOCRIT [4]: 44.08% and 33.07%
HEMOGLOBIN [4]: 13.62 G/DL and 12.93 G/DL
LEUKOCYTE COUNT [4]: 14.73 x10E3/uL and 11.23 x10E3/uL
LYMPHOCYTE [4]: 80.67% and 87%
MEAN CORPUSCULAR HEMOGLOBIN [4]: 20.1 pg and 24.37 pg
MEAN CORPUSCULAR HEMOGLOBIN CONCENTRATION [4]: 30.93 G/DL and 39.13 G/DL
MEAN CORPUSCULAR VOLUME [4]: 65 fL and 62.23 fL
MONOCYTE [4]: 2.75% and 0.33%
NEUTROPHIL [4]: 13.88% and 12.33%
NUCLEATED RED BLOOD CELLS [4]: 0 /100WBC
PLATELET COUNT [4]: 1086.75 x10E3/uL and 1423 x10E3/uL
ALANINE AMINOTRANSFERASE [4]: 52.75 u/L and 43 u/L
ALBUMIN [4]: 3.67 G/DL and 4 G/DL
ALKALINE PHOSPHATASE [4]: 395.75 u/L and 410 u/L
ASPARTATE AMINOTRANSFERASE [4]: 91 u/L and 82.67 u/L
BLOOD UREA NITROGEN [4]: 13.75 mg/dL and 14.67 mg/dL
CARBON DIOXIDE [4]: 36.75 mmol/L and 34.67 mmol/L
CHLORIDE [4]: 105.75 MEQ/L and 99.33 MEQ/L
CHOLESTEROL [4]: 84.75 mg/dL and 72 mg/dL
CREATINE PHOSPHOKINASE [4]: 591 u/L and 571.33 u/L
CREATININE [4]: 0.4 mg/dL and 0.23 mg/dL
GLUCOSE [4]: 181.5 mg/dL and 137.33 mg/dL
LACTATE DEHYDROGENASE [4]: 125.75 u/L and 163.67 u/L
LIPASE [4]: 18.5 u/L and 7.33 u/L
PHOSPHORUS [4]: 11.68 mg/dL and 12.63 mg/dL
POTASSIUM [4]: 6.62 MEQ/L and 6.41 MEQ/L
SODIUM [4]: 151 MEQ/L and 143.33 MEQ/L
TOTAL BILIRUBIN [4]: 0.28 mg/dL and 0.13 mg/dL
TOTAL PROTEIN [4]: 6.15 G/DL and 6.1 G/DL
URIC ACID [4]: 1.28 mg/dL and 0.87 mg/dL

Reference: ChEMBL document CHEMBL3885881, “DrugMatrix”
